Results: patent publication US20110269811A1, “INHIBITORS OF SEMICARBAZIDE-SENSITIVE AMINE OXIDASE (SSAO) AND VAP-1 MEDIATED ADHESION USEFUL FOR TREATMENT AND PREVENTION OF DISEASES” (priority 2006, published 2011)

Experiments:
Human SSAO = molecular target: T1, Human SSAO (Homo sapiens, UniProt Q16853); test: In vitro inhibition of SSAO activity, human umbilical cord homogenate, 14C-benzylamine; format: biochemical; details: human umbilical cord homogenate; read-out: Human SSAO IC50
T1 construct: rat lung or human umbilical cord homogenates were prepared by chopping the freshly removed tissue; from tissue; host or cells: human umbilical cord homogenate (25,000 g supernatant)
T1 sequence (Q16853 1-763): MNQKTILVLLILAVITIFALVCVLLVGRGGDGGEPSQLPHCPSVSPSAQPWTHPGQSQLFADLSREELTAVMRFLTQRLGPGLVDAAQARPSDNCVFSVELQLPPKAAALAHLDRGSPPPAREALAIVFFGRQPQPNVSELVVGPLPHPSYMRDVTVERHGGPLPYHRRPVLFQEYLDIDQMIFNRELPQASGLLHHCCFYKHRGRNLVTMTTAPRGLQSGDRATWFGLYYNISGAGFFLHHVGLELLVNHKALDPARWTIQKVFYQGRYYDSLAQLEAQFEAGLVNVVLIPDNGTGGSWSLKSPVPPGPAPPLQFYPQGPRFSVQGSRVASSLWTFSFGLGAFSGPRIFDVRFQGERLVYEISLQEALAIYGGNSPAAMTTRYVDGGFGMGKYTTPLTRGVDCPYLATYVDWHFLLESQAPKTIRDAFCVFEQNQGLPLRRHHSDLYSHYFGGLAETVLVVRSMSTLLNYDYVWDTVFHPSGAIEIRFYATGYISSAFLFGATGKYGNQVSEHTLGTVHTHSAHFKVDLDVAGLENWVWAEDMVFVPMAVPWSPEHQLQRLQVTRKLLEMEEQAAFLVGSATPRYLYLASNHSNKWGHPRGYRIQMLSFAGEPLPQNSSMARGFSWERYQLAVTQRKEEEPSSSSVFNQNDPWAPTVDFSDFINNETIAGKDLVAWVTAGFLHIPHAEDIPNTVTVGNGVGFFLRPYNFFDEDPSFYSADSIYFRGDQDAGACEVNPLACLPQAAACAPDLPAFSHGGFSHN
Description: SSAO activity was measured as described (Lizcano J M. Et al. (1998) Biochem J. 331:69). Briefly, rat lung or human umbilical cord homogenates were prepared by chopping the freshly removed tissue into small pieces and washing them thoroughly in PBS. The tissue was then homogenized 1:10 (w/v) for lung or 1:5 (w/v) for umbilical cord, in 10 mM potassium phosphate buffer (pH 7.8). Homogenates were then centrifuged at 1000 g at 4° C. for 10 min (lung) or 25,000 g for 30 min (umbilical cord); the supernatants were kept frozen until ready to use. Lung or umbilical cord homogenate was preincubated with clorgyline and pargyline at 1 μM to inhibit MAO-A and -B activity, respectively, and SSAO inhibitors were generally present at 1 nM-10 μM. The reaction was initiated by addition of 20 μM ^14C— benzylamine as substrate. The reaction was carried out at 37° C. in a final volume of 400 μL of 100 mM potassium phosphate buffer (pH 7.2) and stopped with 100 μl of 2M citric acid. Radioactively labeled products were extracted into toluene/ethyl acetate (1:1, v/v) containing 0.6% (w/v) 2,5-diphenyloxazole (PPO) before liquid scintillation counting.

human MAO-B = molecular target: T2, human MAO-B (Homo sapiens, UniProt P27338); test: MAO-B activity, colorimetric method, benzylamine substrate; format: biochemical; details: for Specificity of SSAO on MAO-B: ratio of IC50 for MAO-B to IC50 for SSAO; for IC50: recombinant human MAO-B
T2 construct: purchased BD Biosciences (MA, USA)
T2 sequence (P27338 1-520): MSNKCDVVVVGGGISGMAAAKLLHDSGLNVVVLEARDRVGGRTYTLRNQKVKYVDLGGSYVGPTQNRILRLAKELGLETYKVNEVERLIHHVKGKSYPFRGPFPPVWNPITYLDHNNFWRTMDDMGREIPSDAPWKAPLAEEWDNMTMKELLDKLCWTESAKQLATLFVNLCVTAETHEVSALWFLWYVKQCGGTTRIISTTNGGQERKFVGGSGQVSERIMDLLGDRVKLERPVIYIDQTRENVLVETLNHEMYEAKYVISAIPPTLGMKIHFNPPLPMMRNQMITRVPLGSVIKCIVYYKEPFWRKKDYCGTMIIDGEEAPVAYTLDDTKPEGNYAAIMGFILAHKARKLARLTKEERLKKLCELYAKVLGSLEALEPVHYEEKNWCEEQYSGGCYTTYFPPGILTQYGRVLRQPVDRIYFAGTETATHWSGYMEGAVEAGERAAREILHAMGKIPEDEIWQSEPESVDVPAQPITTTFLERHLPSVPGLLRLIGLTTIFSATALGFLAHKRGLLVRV
Description: The specificities of the different SSAO inhibitors was tested by determining their abilities to inhibit MAO-A and MAO-B activities in vitro. Recombinant human MAO-A and human MAO-B enzymes were obtained from BD Biosciences (MA, USA). MAO activity was measured using the colorimetric method essentially as described (Holt, A. et al. (1997) Anal. Biochem. 244: 384). A pre-determined amount of inhibitor diluted in 0.2M potassium phosphate buffer, pH 7.6, was added to each well, if required. […] Controls lacked inhibitor. The following agents were then added to a final reaction volume of 200 μL in 0.2M potassium phosphate buffer, pH 7.6: 0.04 mg/ml of MAO-A or 0.07 mg/ml MAO-B enzyme, 15 μL of 10 mM tyramine substrate (for MAO-A), or 15 μL 100 mM benzylamine substrate (for MAO-B), and 50 μL of freshly made chromogenic solution. The chromogenic solution contained 750 μM vanillic acid (Sigma#V-2250), 400 μM 4-aminoantipyrine (Sigma #A-4328) and 12 U/mL horseradish peroxidase (Sigma #P-8250) in order to cause a change of 0.5 OD A490 nm/h. […] The plates were incubated for 60 min at 37° C. The increase in absorbance, reflecting MAO activity, was measured at 490 nm using microplate spectrophotometer (Power Wave 40, Bio-Tek Inst.). Inhibition was presented as percent inhibition compared to control after correcting for background absorbance and IC50 values calculated using GraphPad Prism software. Clorgyline and pargyline (inhibitors of MAO-A and -B, respectively) at 1 μM, were added to some wells as positive controls for MAO inhibition.

SMILES	melting point	IC50 (Human SSAO)	Specificity of SSAO on MAO-B (human MAO-B)	IC50 (human MAO-B)
NC/C(=C\F)CCc1cc(F)cc(C(F)(F)F)c1.O=C(O)C(F)(F)F [Compound I-109-Z, (Z)-3-Fluoro-2-(3-fluoro-5-trifluoromethylphenylethyl)allylamine trifluoroacetate]	56 to 57 °C	0.27 µM	5.9	1.6 µM
Cl.NC/C(F)=C\Cc1ccc(F)cc1 [II-5-E, (E)-2-Fluoro-4-(4-fluorophenyl)-2-butenylamine hydrochloride]	213 to 214 °C	0.3 µM	>3333	> 1000 µM
Cc1cccc(C/C=C(/F)CN)c1.Cl [II-6-E, (E)-2-Fluoro-4-(3-methylphenyl)-2-butenylamine hydrochloride]	195 to 196 °C	0.13 µM	7692	–
Cl.NC/C(F)=C\Cc1cccc(F)c1 [II-7-E, (E)-2-Fluoro-4-(3-fluorophenyl)-2-butenylamine hydrochloride]	175 to 176 °C	0.22 µM	4545	–
COc1cccc(C/C=C(/F)CN)c1.Cl [II-8-E, (E)-2-Fluoro-4-(3-methoxyphenyl)-2-butenylamine hydrochloride]	175 to 176 °C	0.022 µM	50000	1100 µM
Cl.NC/C(F)=C\Cc1ccccc1 [II-9-E, (E)-2-Fluoro-4-phenyl-2-butenylamine hydrochloride]	120 to 121 °C	0.099 µM	12120	1200 µM
Cl.NC/C(F)=C\Cc1cccc(OC(F)(F)F)c1 [II-10-E, (E)-2-Fluoro-4-(3-trifluoromethoxyphenyl)-2-butenylamine hydrochloride]	174 to 175 °C	0.018 µM	53670	966 µM
CSc1cccc(C/C=C(/F)CN)c1.Cl [II-13-E, (E)-2-Fluoro-4-(3-methylthiophenyl)-2-butenylamine hydrochloride]	192 to 193 °C	0.01 µM	100000	–
CS(=O)(=O)c1cccc(C/C=C(/F)CN)c1.Cl [II-14-E, (E)-2-Fluoro-4-(3-methanesulfonylphenyl)-2-butenylamine hydrochloride]	196 to 197 °C	0.07 µM	14286	–
Cl.NC/C(F)=C\Cc1cccc(SC(F)(F)F)c1 [II-15-E, (E)-2-Fluoro-4-(3-trifluoromethylthiophenyl)-2-butenylamine hydrochloride]	188 to 189 °C	0.023 µM	>34780	> 800 µM
